The source of these data is publication PMC6609034, “Unraveling the role of the secretor antigen in human rotavirus attachment to histo-blood group antigens” (PLoS Pathogens, 2019).

The target of test [1] is T1, VP8* P[8]c (clinical isolate, lineage III) (Rotavirus A, UniProt A0A0S0VKY7).
T1 sequence (A0A0S0VKY7 1-161): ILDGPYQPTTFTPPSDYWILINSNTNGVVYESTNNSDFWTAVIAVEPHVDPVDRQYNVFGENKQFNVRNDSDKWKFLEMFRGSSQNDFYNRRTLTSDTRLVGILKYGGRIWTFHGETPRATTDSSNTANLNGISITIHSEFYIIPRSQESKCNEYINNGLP
Put plainly: SPR apparent affinity of VP8* for immobilized HBGAs. The conditions noted are these: PAA-biotin glycan immobilized on SA chip, VP8* as analyte, 10°C, ± standard deviation, read-out: Kda (apparent affinity constant). The format is binding, human rotavirus. How it is done:
(§1) The affinity assays were based on SPR and performed in a Biacore T100 instrument (GE Healthcare). H1 PAA-biotin and LNB PAA-biotin were diluted to a concentration of 1 mg/ml in water and captured with streptavidin present in a SA sensor chip (GE Healthcare). H1 was immobilized in channel 2 (630 RU) of the sensor chip and LNB was immobilized in channel 4 (624 RU). The channels 1 and 3 were used as the reference surfaces for channels 2 and 4, respectively. The immobilization process was performed by conditioning the sensor chip surface with three consecutive 1-minute injections of 1 M NaCl 50 mM NaOH before biotinylated ligands were immobilized at a flow rate of 15 μl/min. The affinity assays of VP8* polypeptides to biotinylated sugars were performed at 10°C using 1X HBS-EP^+ buffer (0.01 M HEPES pH 7.4, 0.15 M NaCl, 3 mM EDTA, 0.005% Surfactant P20), a flow rate of 5 μl/min with 2700 seconds of contact time and a dissociation time of 1800 seconds. The regeneration step consisted in a wash step with 10 mM Glycine-HCl pH 2 for 20 seconds at the same flow rate. The assays were performed with purified VP8* at different concentrations (45; 137; 411; 1,234; 3,703; 11,111; 33,333; 100,000 and 200,000 nM). Each run included three blanks without sample. The affinity data were obtained after analysis of sensorgrams performed with the BIAevaluation 2.0 software (GE Healthcare). Since multivalent oligosaccharides are immobilized on a sensor chip surface, avidity and rebinding effects can take place and apparent affinity constants (Kda) are calculated with this experimental setup. Kda values were obtained from the steady-state kinetics experiment as the ligand concentration needed to achieve a half-maximum binding at equilibrium. The experiments were made in triplicate. Graphical representation of signal/concentration curves were plotted using GraphPad Prism 6 for MacOsX.

In another test the target is T2, VP8* P[8]Wa (lineage I) (Rotavirus A, UniProt P11193).
T2 construct: amino acids 64–224 from the VP4 protein of rotavirus; GST (N); made in house; host or cells: E. coli BL21 (DE3)
T2 sequence (P11193 64-224): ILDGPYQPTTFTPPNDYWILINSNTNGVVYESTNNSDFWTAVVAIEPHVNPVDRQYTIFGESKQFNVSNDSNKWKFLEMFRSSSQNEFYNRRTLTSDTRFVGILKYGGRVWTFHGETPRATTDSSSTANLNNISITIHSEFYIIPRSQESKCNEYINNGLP
The description is as above. Type of test: binding, human rotavirus. The conditions noted are these: PAA-biotin glycan immobilized on SA chip, VP8* as analyte, 10°C, ± standard deviation, read-out: Kda (apparent affinity constant). The method, then: as §1

Test [2] addresses VP8* from the lineage IV strain (P[8]LIV). Kind of test: SPR interaction of VP8* with immobilized HBGAs. The format is binding, human rotavirus. The method, then: as §1
Test [3] has as its target VP8* from Rotarix strain (lineage I). Put plainly: SPR interaction of VP8* with immobilized HBGAs. The format is binding, human rotavirus. The method, then:
as §1

Test [4] has as its system VP8* P[4]. Put plainly: ELISA-like binding assay to biotinylated HBGAs. The arrangement: species or system human rotavirus. To be noted: biotinylated PAA glycan 2 μg/ml, VP8* 10 μg/ml. From the text: A panel of biotinylated sugar antigens including Le^a, Le^b, Le^c (lacto-N-biose; LNB), H type-1, H type-2 and blood group A and B trisaccharides were purchased from Glyconz (Fig 1 and S1 Table). These glycans are biotinylated neoglyconjugates of a poly[N-(2-hydroxyethyl)acrylamide] (PAA) with a size from 30 to 50 KDa. This forms a flexible polymer ideal for a multivalent presentation of glycans. Immobilized streptavidin F96 black plates (Nunc) were coated with the biotinylated oligosaccharides (2 μg/ml) in milli-Q water and incubated during 1 hour at 37°C. After functionalization the plates were washed once with PBS containing 0.05% of Tween 20 (PBS-T) and the VP8* proteins were added (10 μg/ml) and incubated at 4°C overnight. After three washes with PBS-T, a rabbit polyclonal antibody anti GST (1:1,000) (Abcam) was added and the plates were incubated one hour at 37°C. Then, the plates were washed three times with PBS-T and incubated for 1 h at 37°C with 1:10,000 dilution of horseradish peroxidase (HRP)-conjugated goat anti-rabbit (Abcam). After three washes with PBS-T, the binding was detected using QuantaBlue reagent (ThermoFisher) kit, as recommended by the manufacturer. Fluorescence units were registered by a MultiScan microplate reader. All the binding assays were performed in triplicate.
(In general: In an ELISA, binding on a coated surface is turned into a signal by an enzyme label.)

For test [5], the system named is P[8]c VP8* mutant W174A (M1). Kind of test: SPR binding of VP8* mutant. The arrangement: species or system human rotavirus.
From the text: (§2) Selected residues in the GST::VP8* P[8] were replaced for alanine or valine according to the structural data of the LNB binding site. Four mutants (M1–M4) were constructed using a Quick-Change site-directed mutagenesis kit (Stratagene) and appropriate oligonucleotides (S5 Table), and the DNA changes were confirmed by DNA sequencing. Mutant M1, M2 and M3 contained changes in the codons for tryptophan 174, arginine 209 and glutamic 212 residues, respectively, that introduced an alanine at each position. Mutant M4 substituted isoleucine 173 by valine.
as §1
On the technique in general: Surface plasmon resonance follows binding to a sensor surface in real time, without labels.

The subject of test [6] is P[8]c VP8* mutant R209A (M2). Kind of test: SPR binding of VP8* mutant. Further details: species or system human rotavirus.
From the text: as §2, §1

In test [7] the test system is VP8* P[8]c binding to the H1 antigen. Kind of test: Binding blocking assay, immobilized H1 antigen. To be noted: soluble sugar at 20 mM. Further details: species or system human rotavirus. How it is done: To confirm the binding of the VP8* from the P[8] genotype to the H type-1 precursor LNB, a blocking assay was performed using soluble LNB and its related disaccharide galacto-N-biose (Gal-β-1,3-GalNAc; GNB) produced and purified in our laboratory as previously described.
Streptavidin microtiter plates were coated with biotinylated H type-1 antigen or LNB at 2 μg/ml with water and incubated for 1 hour at 37°C, followed by an overnight incubation at 4°C. Blocking assays were performed in parallel, using glass tubes containing the P[8]c and P[8]Wa VP8* protein at their EC50 for each ligand and 20 mM of each of the soluble disaccharides (LNB and GNB) and monosaccharides (D-galactose, GlcNAc and GalNAc). A positive binding control without sugar was also included. The tubes containing the mixes of VP8* with sugars were maintained 1 hour at 37°C, followed by an overnight incubation at 4°C. The next day the coated streptavidin plates were washed with PBS-T, the VP8*-sugar solutions were added to the plates and incubated during 4 hours at 4°C. The plates were washed three times with PBS-T and detection of the interactions was performed as described above. The results are presented as the percentage (%) of binding of each condition compared to the binding of the positive binding control (without blocking sugar). All experiments were performed in triplicate.

With `CC(=O)NC1C(O)OC(CO)C(O)C1OC1OC(CO)C(O)C(O)C1OC1OC(C)C(O)C(O)C1O` (stereo not drawn) [H1, Fuc-α1,2-Gal-β1,3-GlcNAc], the Kd was 27.9 µM in test [1] and 80.2 µM on VP8* P[8]Wa (lineage I). In addition, the “interaction by SPR” value in test [2] and in test [3] was “too low to be determined” in each case. Further, the “binding (ELISA-like)” value with VP8* P[4] is on record as “recognized”. Besides, the “binding by SPR” value in test [5] and in test [6] was “lost their ability to interact” in each case.

`CC(=O)NC1C(O)OC(CO)C(O)C1OC1OC(CO)C(O)C(O)C1O` (stereo not drawn) [LNB, Gal-β1,3-GlcNAc]: the Kd is 52.1 µM in test [1] and 66.5 µM at VP8* P[8]Wa (lineage I). Moreover, the “interaction by SPR” value in test [2] and in test [3] was “too low to be determined” throughout. Moreover, in test [7], the “reduction in the binding to the H1 antigen” value is recorded as 24.2%. The “binding by SPR” value in test [5] and in test [6] was “lost their ability to interact” each time.
